The text below walks through data of patent US20250296959A1, “B7-H3 TARGETING PEPTIDES AND CONSTRUCTS THEREOF” (Mariana Oncology Inc., priority 2024, published 2025).

pKd: −log10 of the molar value. Starred links: 1 amine or outer side, 2 acyl side, 3 side chain; linkers in the order of their positions; H or OH if unused. Positions of bridges follow the written chain, without caps; N, C: chain ends. Non-standard residues stand in square brackets, D forms with d. Residues, ends and D or L forms follow the SMILES beside them. Groups on a side chain read outwards from the residue. ξ: configuration not given here. *: point of attachment. Ala(piperidin-4-yl) = O=C([C@H](CC1CCN([*:3])CC1)N[*:1])[*:2]; Phe(3-CH2NH2) = O=C([C@H](Cc1cccc(CN[*:3])c1)N[*:1])[*:2]; DOTA = O=C(O)CN1CCN(CC(=O)O)CCN(CC(=O)*)CCN(CC(=O)O)CC1; Trp(5-F) = N[C@@H](Cc1c[nH]c2ccc(F)cc12)C(=O)O; γGlu = O=C(O)[C@H](CCC(=O)[*:2])N[*:1]; 1Nal = N[C@@H](Cc1cccc2ccccc12)C(=O)O; Ala(4-THP) = N[C@@H](CC1CCOCC1)C(=O)O; Val(3-OH) = CC(C)(O)[C@H](N)C(=O)O; 4Pal = N[C@@H](Cc1ccncc1)C(=O)O; Cha = N[C@@H](CC1CCCCC1)C(=O)O; Chg = N[C@H](C(=O)O)C1CCCCC1; Tle = CC(C)(C)[C@H](N)C(=O)O; hLeu = CC(C)CC[C@H](N)C(=O)O; Pip = O=C(O)[C@@H]1CCCCN1; hSer = N[C@@H](CCO)C(=O)O; Nle = CCCC[C@H](N)C(=O)O; ξF = NC(Cc1ccccc1)C(=O)O; Dap = NC[C@H](N)C(=O)O

The experiment addresses T1, human 4lg B7-H3 (Homo sapiens, UniProt Q5ZPR3).
T1 sequence (Q5ZPR3 29-534): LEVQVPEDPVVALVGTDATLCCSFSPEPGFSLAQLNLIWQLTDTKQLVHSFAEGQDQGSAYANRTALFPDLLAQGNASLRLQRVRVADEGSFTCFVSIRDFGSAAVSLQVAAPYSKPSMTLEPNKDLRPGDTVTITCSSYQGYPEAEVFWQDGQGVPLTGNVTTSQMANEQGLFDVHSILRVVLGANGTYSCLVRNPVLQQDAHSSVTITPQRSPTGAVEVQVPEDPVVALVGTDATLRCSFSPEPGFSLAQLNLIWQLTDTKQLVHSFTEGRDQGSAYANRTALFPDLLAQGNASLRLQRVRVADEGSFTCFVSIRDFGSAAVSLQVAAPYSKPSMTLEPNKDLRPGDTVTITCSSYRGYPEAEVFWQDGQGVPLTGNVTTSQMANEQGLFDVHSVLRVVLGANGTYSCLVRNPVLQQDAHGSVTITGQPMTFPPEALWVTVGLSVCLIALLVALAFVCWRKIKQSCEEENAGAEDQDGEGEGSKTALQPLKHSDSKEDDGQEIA
Kind of experiment: Affinity determination by surface plasmon resonance (SPR) to 4Ig B7-H3. The note with it: 4Ig B7-H3. (In general: Surface plasmon resonance follows binding to a sensor surface in real time, without labels.)

Where [1] appears, read: SPR KD—37° C., 37° C. flow cell temperature.
Where [2] appears, read: SPR KD—25° C., 25° C. flow cell temperature.

Usually pKd stands for the Kd on a negative log10 scale, so that one unit is a factor of ten. High values mean a low Kd, low ones a high Kd. As to `CC(=O)N[C@@H](CCC(C)C)C(=O)N[C@@H](Cc1ccc(O)cc1)C(=O)N[C@H]1CSSC[C@@H](C(=O)N[C@@H](Cc2c[nH]c3ccc(F)cc23)C(=O)N[C@@H](Cc2ccccc2)C(=O)N[C@H](C(=O)N[C@H](CCCCNC(=O)CN2CCN(CC(=O)O)CCN(CC(=O)O)CCN(CC(=O)O)CC2)C(=O)O)C(C)(C)O)NC(=O)[C@H](Cc2ccc(O)cc2)NC(=O)[C@H](C(C)C)NC(=O)[C@H](CC(=O)O)NC(=O)[C@H](CC2CCOCC2)NC(=O)[C@H](CN)NC(=O)CNC(=O)[C@H](C(C)(C)C)NC1=O` [compound 372, Ac-hLeu-Y-C-Tbg-G-Dap-ThpA-D-V-Y-C-5FW-F-hydroxyVal-dLys(DOTA)-COOH] (Ac-[hLeu]YC[Tle]G[Dap][Ala(4-THP)]DVYC[Trp(5-F)]F[Val(3-OH)][dK](DOTA)-OH; disulfide 3-11), the pKd under setting [1] was greater than 9.00.
Consider `CC(=O)N[C@@H](CCC(C)C)C(=O)N[C@@H](Cc1ccc(O)cc1)C(=O)N[C@H]1CSSC[C@@H](C(=O)N[C@@H](Cc2cccc3ccccc23)C(=O)N[C@@H](Cc2ccccc2)C(=O)N2CCC[C@H]2C(N)=O)NC(=O)[C@H](Cc2ccc(O)cc2)NC(=O)[C@H](C(C)C)NC(=O)[C@H](CC(=O)O)NC(=O)[C@H](Cc2cccc(CNC(=O)CC[C@H](NC(=O)CN3CCN(CC(=O)O)CCN(CC(=O)O)CCN(CC(=O)O)CC3)C(=O)O)c2)NC(=O)[C@H](CCCCN)NC(=O)CNC(=O)[C@H](C(C)(C)C)NC1=O` [compound 254, Ac-hLeu-Y-C-Tbg-G-K-MAF(gE-DOTA)-D-V-Y-C-1Nal-F-Pro-CONH2] (Ac-[hLeu]YC[Tle]GK[Phe(3-CH2NH2)]([γGlu-DOTA])DVYC[1Nal]FP-NH2; disulfide 3-11), for which, under setting [2], the pKd was 8.00 to 9.00.
Under setting [1], `CC(=O)N[C@@H](CCC(C)C)C(=O)N[C@@H](Cc1ccc(O)cc1)C(=O)N[C@H]1CSSC[C@@H](C(=O)N[C@@H](Cc2c[nH]c3ccc(F)cc23)C(=O)N[C@@H](Cc2ccccc2)C(=O)N[C@H](C(=O)O)C(C)(C)O)NC(=O)[C@H](Cc2ccc(O)cc2)NC(=O)[C@H](C(C)C)NC(=O)[C@H](CC(=O)O)NC(=O)[C@H](CC2CCOCC2)NC(=O)[C@H](CC2CCN(C(=O)CN3CCN(CC(=O)O)CCN(CC(=O)O)CCN(CC(=O)O)CC3)CC2)NC(=O)CNC(=O)[C@H](C(C)(C)C)NC1=O` [compound 342, Ac-hLeu-Y-C-Tbg-G-Pip(DOTA)Ala-ThpA-D-V-Y-C-5FW-F-hydroxyVal-COOH] (Ac-[hLeu]YC[Tle]G[Ala(piperidin-4-yl)](DOTA)[Ala(4-THP)]DVYC[Trp(5-F)]F[Val(3-OH)]-OH; disulfide 3-11) gave a pKd of 7.00 to 8.00.
The compound `CC(=O)N[C@@H](CCC(C)C)C(=O)N[C@@H](Cc1ccc(O)cc1)C(=O)N[C@H]1CSSC[C@@H](C(=O)N[C@@H](Cc2c[nH]c3ccc(F)cc23)C(=O)N[C@@H](Cc2ccccc2)C(=O)N[C@H](C(=O)N[C@H](CCCCNC(=O)CN2CCN(CC(=O)O)CCN(CC(=O)O)CCN(CC(=O)O)CC2)C(=O)O)C(C)(C)O)NC(=O)[C@H](Cc2ccc(O)cc2)NC(=O)[C@H](CCO)NC(=O)[C@H](CC(=O)O)NC(=O)[C@H](CC2CCOCC2)NC(=O)[C@H](CCCCN)NC(=O)CNC(=O)[C@H](C(C)(C)C)NC1=O` [compound 373, Ac-hLeu-Y-C-Tbg-G-K-ThpA-D-hSer-Y-C-5FW-F-hydroxyVal-dLys(DOTA)-COOH] (Ac-[hLeu]YC[Tle]GK[Ala(4-THP)]D[hSer]YC[Trp(5-F)]F[Val(3-OH)][dK](DOTA)-OH; disulfide 3-11) showed a pKd under setting [1] of 8.00 to 9.00.
The same measure, in the same setting: the figure for `CC(=O)N[C@@H](CCC(C)C)C(=O)N[C@@H](Cc1ccc(O)cc1)C(=O)N[C@H]1CSSC[C@@H](C(=O)N[C@@H](Cc2c[nH]c3ccc(F)cc23)C(=O)N[C@@H](Cc2ccccc2)C(=O)N[C@H](C(=O)N[C@H](CCCCNC(=O)CN2CCN(CC(=O)O)CCN(CC(=O)O)CCN(CC(=O)O)CC2)C(=O)O)C(C)(C)O)NC(=O)[C@H](Cc2ccc(O)cc2)NC(=O)[C@H](CO)NC(=O)[C@H](CC(=O)O)NC(=O)[C@H](CC2CCOCC2)NC(=O)[C@H](CCCCN)NC(=O)CNC(=O)[C@H](C(C)(C)C)NC1=O` [compound 378, Ac-hLeu-Y-C-Tbg-G-K-ThpA-D-Ser-Y-C-5FW-F-hydroxyVal-dLys(DOTA)-COOH] (Ac-[hLeu]YC[Tle]GK[Ala(4-THP)]DSYC[Trp(5-F)]F[Val(3-OH)][dK](DOTA)-OH; disulfide 3-11) is 6.52 to 7.00.
Take `CC(=O)N[C@@H](CCC(C)C)C(=O)N[C@@H](Cc1ccc(O)cc1)C(=O)N[C@H]1CSSC[C@@H](C(=O)N[C@@H](Cc2cccc3ccccc23)C(=O)NC(Cc2ccccc2)C(=O)N2CCC[C@H]2C(=O)N[C@H](CCCCNC(=O)CC[C@H](NC(=O)CN2CCN(CC(=O)O)CCN(CC(=O)O)CCN(CC(=O)O)CC2)C(=O)O)C(N)=O)NC(=O)[C@H](Cc2ccc(O)cc2)NC(=O)[C@H](C(C)C)NC(=O)[C@H](CC(=O)O)NC(=O)[C@H](CC2CCCCC2)NC(=O)[C@H](CC2CCNCC2)NC(=O)CNC(=O)[C@H](C(C)(C)C)NC1=O` (stereo partly drawn) [compound 277, Ac-hLeu-Y-C-Tbg-G-PipAla-CHA-D-V-Y-C-1Nal-F-Pro-dLys(gE-DOTA)-CONH2] (Ac-[hLeu]YC[Tle]G[Ala(piperidin-4-yl)][Cha]DVYC[1Nal][ξF]P[dK]([γGlu-DOTA])-NH2; disulfide 3-11): under setting [2], the pKd was 8.00 to 9.00.
Compound `CC(=O)N[C@@H](CCC(C)C)C(=O)N[C@@H](Cc1ccc(O)cc1)C(=O)N[C@H]1CSSC[C@@H](C(=O)N[C@@H](Cc2cccc3ccccc23)C(=O)N[C@@H](Cc2ccccc2)C(=O)N2CCCC[C@H]2C(=O)O)NC(=O)[C@H](Cc2ccc(O)cc2)NC(=O)[C@H](C(C)C)NC(=O)[C@H](CC(=O)O)NC(=O)[C@H](Cc2ccncc2)NC(=O)[C@H](CCCCNC(=O)CN2CCN(CC(=O)O)CCN(CC(=O)O)CCN(CC(=O)O)CC2)NC(=O)CNC(=O)[C@H](C(C)(C)C)NC1=O` [compound 265, Ac-hLeu-Y-C-Tbg-G-Lys(DOTA)-4PyA-D-V-Y-C-1Nal-F-Pip acid-CONH2] (Ac-[hLeu]YC[Tle]GK(DOTA)[4Pal]DVYC[1Nal]F[Pip]-OH; disulfide 3-11) showed a pKd under setting [2] of 7.00 to 8.00.
Still for that read-out and setting: the figure for `CCCC[C@H](NC(C)=O)C(=O)N[C@@H](Cc1ccc(O)cc1)C(=O)N[C@H]1CSSC[C@@H](C(=O)N[C@@H](Cc2c[nH]c3ccccc23)C(=O)N[C@@H](Cc2ccccc2)C(=O)N[C@H](C(=O)N[C@H](CCCCNC(=O)CN2CCN(CC(=O)O)CCN(CC(=O)O)CCN(CC(=O)O)CC2)C(N)=O)[C@@H](C)O)NC(=O)[C@H](Cc2ccc(O)cc2)NC(=O)[C@H](C(C)C)NC(=O)[C@H](CC(=O)O)NC(=O)[C@H](Cc2ccc(O)cc2)NC(=O)[C@H](CCCCN)NC(=O)CNC(=O)[C@H](C(C)(C)C)NC1=O` [compound 61, Ac-Nle-Y-C-Tbg-G-K-Y-D-V-Y-C-W-F-Thr-dLys(DOTA)-CONH2] (Ac-[Nle]YC[Tle]GKYDVYCWFT[dK](DOTA)-NH2; disulfide 3-11) is 8.00 to 9.00.
With `CCCC[C@H](NC(C)=O)C(=O)N[C@@H](Cc1ccc(O)cc1)C(=O)N[C@H]1CSSC[C@@H](C(=O)N[C@@H](Cc2c[nH]c3ccccc23)C(=O)N[C@@H](Cc2ccccc2)C(=O)N[C@H](C(=O)N[C@H](CCCCNC(=O)CN2CCN(CC(=O)O)CCN(CC(=O)O)CCN(CC(=O)O)CC2)C(N)=O)[C@@H](C)O)NC(=O)[C@H](Cc2ccc(O)cc2)NC(=O)[C@H](C(C)C)NC(=O)[C@H](CC(=O)O)NC(=O)[C@H](Cc2ccc(O)cc2)NC(=O)[C@H](CCCCN)NC(=O)CNC(=O)[C@H](C2CCCCC2)NC1=O` [compound 54, Ac-Nle-Y-C-ChG-G-K-Y-D-V-Y-C-W-F-Thr-dLys(DOTA)-CONH2] (Ac-[Nle]YC[Chg]GKYDVYCWFT[dK](DOTA)-NH2; disulfide 3-11), the pKd under setting [2] is 7.00 to 8.00.
